Laboratory results: publication PMC6286348, “Inhibitor binding mode and allosteric regulation of Na^+-glucose symporters” (Nature Communications, 2018)
Changes are numbered by the printed parent chain.

How the values were obtained:
hSGLT1 Y290F = molecular target: T1, hSGLT1 Y290F (Homo sapiens, UniProt P13866, Y290F); design: method as in PMID 23116249; conditions: oocytes, 22 °C; cited from earlier work
T1 construct: expressed in transfected cells; host or cells: Xenopus laevis oocytes injected with cRNA
T1 sequence (P13866 1-664 Y290F): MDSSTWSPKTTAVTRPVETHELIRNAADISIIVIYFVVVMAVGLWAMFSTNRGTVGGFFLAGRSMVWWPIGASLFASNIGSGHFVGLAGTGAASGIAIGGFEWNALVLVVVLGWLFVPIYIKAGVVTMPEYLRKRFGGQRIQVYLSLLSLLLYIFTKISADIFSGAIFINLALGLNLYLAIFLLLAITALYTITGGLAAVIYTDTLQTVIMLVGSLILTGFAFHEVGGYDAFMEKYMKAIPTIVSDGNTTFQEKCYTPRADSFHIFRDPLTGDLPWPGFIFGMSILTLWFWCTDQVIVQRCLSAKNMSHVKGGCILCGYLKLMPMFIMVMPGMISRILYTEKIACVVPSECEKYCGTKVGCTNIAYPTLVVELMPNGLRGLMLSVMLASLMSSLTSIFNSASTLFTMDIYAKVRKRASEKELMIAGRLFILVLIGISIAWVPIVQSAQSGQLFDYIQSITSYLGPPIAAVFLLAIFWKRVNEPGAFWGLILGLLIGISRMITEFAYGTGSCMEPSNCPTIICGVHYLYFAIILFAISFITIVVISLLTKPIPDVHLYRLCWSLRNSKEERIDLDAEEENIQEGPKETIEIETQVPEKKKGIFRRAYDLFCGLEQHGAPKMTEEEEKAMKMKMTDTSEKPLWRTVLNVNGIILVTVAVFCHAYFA

hSGLT1 T395A = molecular target: T2, hSGLT1 T395A (Homo sapiens, UniProt P13866, T395A); test: SGLT current measurement in oocytes, hSGLT1 T395A; assay type: cell-based; conditions: 22 °C
T2 construct: expressed in transfected cells; host or cells: Xenopus laevis oocytes injected with cRNA
T2 sequence (P13866 1-664 T395A): T1 sequence (P13866 1-664 Y290F) with F290Y, T395A
Procedure: Xenopus laevis (Nasco) oocytes (V–VI) were prepared as previously described[20] and injected with 50 nl of cRNA (1 μg/μl). […] Briefly, oocytes were incubated for 30 min in the presence of 50 μM αMDG (5 μM [^14C]αMDG) in a buffer containing (in mM) 100 NaCl, 2 KCl, 1 MgCl2, 1 CaCl2, and 10 N-(2-hydroxyethyl)piperazine-N′-(2-ethanesulfonic acid) (HEPES)/Tris (pH 7.5). After incubation, oocytes were rinsed thoroughly with ice-cold buffer containing (mM) 100 choline Cl^–, 2 KCl, 1 MgCl2, 1 CaCl2, and 10 HEPES/Tris (pH 7.5), individually lysed with 5% sodium dodecyl sulfate, and assayed for radioactivity.
Injected oocytes were incubated at 18 °C, and after 3–4 days, two electrode voltage clamp experiments were performed as previously described. Briefly, SGLT inward glucose currents were measured as a function of the external Na^+ (0–100 mM NaCl), sugar (0–100 mM αMDG), and inhibitors (0.001–100 μM). Steady-state and hSGLT1 capacitive currents were recorded using voltage steps from a holding voltage, Vh of −60 mV, to voltages in the range of −180 to +50 mV in 20 mV increments. The apparent affinity of αMDG, K0.5, was estimated from plots of the inward current as a function of the external αMDG concentration. […] The Na^+-to-αMDG stoichiometry was determined from the reversal potential measurements using the Gibbs free energy as previously described. […]

hSGLT1 Q457C = test system: hSGLT1 Q457C; design: method as in PMID 22159082; conditions: oocytes, 22 °C; cited from earlier work

[Na+] [Na^+]
K0.5 Na^+ (hSGLT1 Y290F): 20 ± 1[21] mM | K0.5 Na^+ (hSGLT1 T395A): 104 ± 50 mM | K0.5 Na^+ (hSGLT1 Q457C): 34 ± 2[20] mM
